{
  "source": "patent US20230112845A1",
  "about": "“COMPOSITIONS OF BERBERINE URSODE[…] METHODS THEREOF FOR TREATING FATTY LIVER DISEASE, DIABETES AND HYPERLIPIDEMIA” (SHENZHEN HIGHTIDE BIOPHARMACEUTICAL LTD., priority 2020, published 2023)",
  "key": {"[1]": {"tested_on": "subjects with a history of hypercholesterolemia", "test": "Phase 1b randomized placebo-controlled dose-ranging study: serum lipids, lipoproteins, HbA1c, ALT", "format": "in vivo, human", "set-up": "TG (serum level) / TC (serum level) / Non-HDL-c (serum level) / HDL-c (serum level): unit not given here; LDL-c (serum level): unit: mmol/L", "procedure": "(§1) A double-blind, randomized, placebo-controlled, dose ranging study was carried out that compared three doses of berberine ursodeoxycholate (BUDCA, a.k.a. HTD1801) to placebo in a cohort of subjects with a history of hypercholesterolemia and serum LDL-c levels above 2.59 mmol/L (>99.9 mg/dL). BUDCA was administered in two divided doses each day for 28 days. The primary endpoints of the study were safety and tolerability of this new compound, as well as its effect in lowering serum lipid and lipoprotein concentrations.\nAdult subjects were recruited and enrolled into this double-blind, randomized placebo-controlled dose ranging study at one of three research units in Australia between April and December of 2018. The key entry criteria were hypercholesterolemia, with serum LDL-c >2.59 mmol/L (>99.9 mg/dL) and overweight or obesity (BMI between 25 and 40 kg/m^2). […] Subjects were asked to discontinue the use of lipid-lowering medications at least 28 days prior to their first dose of BUDCA and for the duration of the study.\nSubjects underwent an initial assessment and were then randomized to receive ascending doses of BUDCA in three sequential dosing groups: Group I received 500 mg/day of BUDCA or matching placebo in a ratio of 3:1. Group II received 1,000 mg/day of BUDCA or placebo, 3:1 and Group III received 2,000 mg/day BUDCA or placebo, 3:1. Study medication or placebo was given in two equal doses daily for 28 days. The investigational product BUDCA was administered in the form of film-coated tablets, each tablet containing 250 mg of BUDCA. The placebo was identical in appearance to the active agent. Subjects were instructed to take their tablets after breakfast and after dinner respectively with a glass of water.\nThe groups were enrolled sequentially, but follow-up overlapped (the next cohort could begin during the follow-up period of the prior cohort) (FIG. 1). The decision to move to the next dose level was based upon tolerability and safety findings, as assessed by a Safety Monitoring Committee. Individual subjects were admitted overnight for their first and last doses and so as to draw blood samples for pharmacokinetic studies; in between, they were seen every few days. Subjects were asked to arrive in a fasting state (typically overnight). After having vital signs measured and baseline laboratory tests taken, the subject was given a morning meal and then observed while taking their first dose of BUDCA with a glass of water. They stayed overnight to allow sampling for PK studies which were drawn at the following time points −18 hours, −12, −6, 0 time (pre-dose), +0.25 (post-dose), +0.5, +1, +2, +3, +4, +8, +12, +24 hours. Blood samples for PK studies were collected in dipotassium ethylene diamine tetra-acetic acid (K2EDTA) as the anticoagulant and the assays were done on plasma.\nBlood samples for serum biochemistry (including lipid levels) and blood counts were drawn with subjects in a fasting state, at baseline and every 14 days through the study. Samples were shipped in a refrigerated state to laboratory where testing was done using routine clinical methodology, as follows: HbA1c was measured by ion-exchange HPLC (Bio-Rad D-100). For samples received by the laboratory prior to Sep. 2, 2018, the following analytes were measured on the Roche Diagnostics Modular P100 platform (ALT by photometric assay, TC by Trinder peroxidase assay, LDL-c by photometric assay, HDL-c by homogenous enzymatic colorimetric assay and TG by photometric assay). For samples received by the laboratory after Sep. 2, 2018, the following analytes were measured on the Beckman Coulter AU 5800 platform (ALT by photometric assay, TC by cholesterol-oxidase/peroxidase assay, LDL-c by homogenous enzymatic colorimetric assay, HDL-c by immune inhibition and cholesterol oxidase assay and TG by an enzymatic method using opiase/GK/GPO-PAP-4 amino phenazone). […]"}, "[2]": {"tested_on": "subjects with a history of hypercholesterolemia", "test": "Phase 1b study: safety and tolerability", "format": "in vivo, human", "conditions": "28 days", "procedure": "as §1\nSubjects underwent an initial assessment and were then randomized to receive ascending doses of BUDCA in three sequential dosing groups: Group I received 500 mg/day of BUDCA or matching placebo in a ratio of 3:1. Group II received 1,000 mg/day of BUDCA or placebo, 3:1 and Group III received 2,000 mg/day BUDCA or placebo, 3:1. Study medication or placebo was given in two equal doses daily for 28 days. […]\nThe groups were enrolled sequentially, but follow-up overlapped (the next cohort could begin during the follow-up period of the prior cohort) (FIG. 1). The decision to move to the next dose level was based upon tolerability and safety findings, as assessed by a Safety Monitoring Committee. […] After having vital signs measured and baseline laboratory tests taken, the subject was given a morning meal and then observed while taking their first dose of BUDCA with a glass of water. […]"}, "[3]": {"conditions": "highest dose (2,000 mg per day), day 28"}},
  "data": [
    {"smiles": "COc1ccc2cc3[n+](cc2c1OC)CCc1cc2c(cc1-3)OCO2.C[C@H](CCC(=O)[O-])[C@H]1CC[C@H]2[C@@H]3[C@@H](O)C[C@@H]4C[C@H](O)CC[C@]4(C)[C@H]3CC[C@]12C", "note": "[BUDCA, berberine ursodeoxycholate]", "values": [
      {"measurement": "HDL-c (serum level)", "setting": "[1]; 500 mg/day, Day 14, baseline 1.25, P vs. placebo n.s.", "value": 1.22},
      {"measurement": "TG (serum level)", "setting": "[1]; 500 mg/day, Day 14, baseline 2.11, P vs. placebo n.s.", "value": 1.89},
      {"measurement": "LDL-c (serum level)", "setting": "[1]; 500 mg/day, Day 14, baseline 4.01, P vs. placebo n.s.", "value": 3.87},
      {"measurement": "Non-HDL-c (serum level)", "setting": "[1]; 500 mg/day, Day 14, baseline 4.85, P vs. placebo n.s.", "value": 4.75},
      {"measurement": "TC (serum level)", "setting": "[1]; 500 mg/day, Day 14, baseline 6.13, P vs. placebo n.s.", "value": 5.96},
      {"measurement": "HDL-c (serum level)", "setting": "[1]; 500 mg/day, Day 28, baseline 1.25, P vs. placebo n.s.", "value": 1.17},
      {"measurement": "TG (serum level)", "setting": "[1]; 500 mg/day, Day 28, baseline 2.11, P vs. placebo n.s.", "value": 2.27},
      {"measurement": "LDL-c (serum level)", "setting": "[1]; 500 mg/day, Day 28, baseline 4.01, P vs. placebo n.s.", "value": 3.72},
      {"measurement": "Non-HDL-c (serum level)", "setting": "[1]; 500 mg/day, Day 28, baseline 4.85, P vs. placebo 0.03", "value": 4.71},
      {"measurement": "TC (serum level)", "setting": "[1]; 500 mg/day, Day 28, baseline 6.13, P vs. placebo n.s.", "value": 5.88},
      {"measurement": "HDL-c (serum level)", "setting": "[1]; 1,000 mg/day, Day 14, baseline 1.32, P vs. placebo n.s.", "value": 1.29},
      {"measurement": "TG (serum level)", "setting": "[1]; 1,000 mg/day, Day 14, baseline 1.76, P vs. placebo n.s.", "value": 1.73},
      {"measurement": "LDL-c (serum level)", "setting": "[1]; 1,000 mg/day, Day 14, baseline 3.68, P vs. placebo n.s.", "value": 3.42},
      {"measurement": "Non-HDL-c (serum level)", "setting": "[1]; 1,000 mg/day, Day 14, baseline 4.48, P vs. placebo n.s.", "value": 4.23},
      {"measurement": "TC (serum level)", "setting": "[1]; 1,000 mg/day, Day 14, baseline 5.81, P vs. placebo n.s.", "value": 5.51},
      {"measurement": "HDL-c (serum level)", "setting": "[1]; 1,000 mg/day, Day 28, baseline 1.32, P vs. placebo n.s.", "value": 1.23},
      {"measurement": "TG (serum level)", "setting": "[1]; 1,000 mg/day, Day 28, baseline 1.76, P vs. placebo 0.028", "value": 1.86},
      {"measurement": "LDL-c (serum level)", "setting": "[1]; 1,000 mg/day, Day 28, baseline 3.68, P vs. placebo n.s.", "value": 3.51},
      {"measurement": "Non-HDL-c (serum level)", "setting": "[1]; 1,000 mg/day, Day 28, baseline 4.48, P vs. placebo 0.025", "value": 4.31},
      {"measurement": "TC (serum level)", "setting": "[1]; 1,000 mg/day, Day 28, baseline 5.81, P vs. placebo n.s.", "value": 5.54},
      {"measurement": "HDL-c (serum level)", "setting": "[1]; 2,000 mg/day, Day 14, baseline 1.24, P vs. placebo n.s.", "value": 1.33},
      {"measurement": "TG (serum level)", "setting": "[1]; 2,000 mg/day, Day 14, baseline 1.60, P vs. placebo n.s.", "value": 1.42},
      {"measurement": "LDL-c (serum level)", "setting": "[1]; 2,000 mg/day, Day 14, baseline 3.85, P vs. placebo 0.0093", "value": 3.40},
      {"measurement": "Non-HDL-c (serum level)", "setting": "[1]; 2,000 mg/day, Day 14, baseline 4.62, P vs. placebo 0.0018", "value": 4.04},
      {"measurement": "TC (serum level)", "setting": "[1]; 2,000 mg/day, Day 14, baseline 5.91, P vs. placebo 0.01", "value": 5.37},
      {"measurement": "HDL-c (serum level)", "setting": "[1]; 2,000 mg/day, Day 28, baseline 1.24, P vs. placebo n.s.", "value": 1.29},
      {"measurement": "TG (serum level)", "setting": "[1]; 2,000 mg/day, Day 28, baseline 1.60, P vs. placebo 0.0018", "value": 1.54},
      {"measurement": "LDL-c (serum level)", "setting": "[1]; 2,000 mg/day, Day 28, baseline 3.85, P vs. placebo 0.091", "value": 3.44},
      {"measurement": "Non-HDL-c (serum level)", "setting": "[1]; 2,000 mg/day, Day 28, baseline 4.62, P vs. placebo 0.0002", "value": 4.14},
      {"measurement": "TC (serum level)", "setting": "[1]; 2,000 mg/day, Day 28, baseline 5.91, P vs. placebo 0.003", "value": 5.42},
      {"measurement": "ALT level during therapy", "setting": "[1]; 500-2,000 mg/day, 28 days", "value": "did not change significantly"},
      {"measurement": "HbA1C level during therapy", "setting": "[1]; 500-2,000 mg/day, 28 days", "value": "did not change significantly"},
      {"measurement": "serum lipid levels among subjects receiving active therapy", "setting": "[1]; 500-2,000 mg/day, maximum reductions relative to placebo after 14 days", "value": "decreased in a dose-dependent fashion"},
      {"measurement": "change in HDL-c concentration", "setting": "[1]; [3]", "value": "no significant changes"},
      {"measurement": "change in TG concentration", "setting": "[1]; [3]", "value": "no significant changes"},
      {"measurement": "reduction in the serum concentration of TC", "setting": "[1]; highest dose (2,000 mg per day), day 28, P=0.0004", "value": 8.2, "unit": "%"},
      {"measurement": "reduction in the serum concentration of LDL-c", "setting": "[1]; highest dose (2,000 mg per day), day 28, P=0.0006", "value": 10.4, "unit": "%"},
      {"measurement": "frequency of treatment-related adverse events", "setting": "[2]; active drug, all doses, placebo 66%", "value": 67, "unit": "%"},
      {"measurement": "tolerability", "setting": "[2]; up to 2,000 mg per day", "value": "generally well tolerated"}
    ]}
  ]
}
